Data on 17 substances can be found in patent US7893199B2, “Peptides having neutrophil-stimulating activity” (National University Corporation Gunma University, priority 2006, dated 2011).

For this assay, the system named is HL-60 cells differentiated into the neutrophil-like cells. Put plainly: β-hexosaminidase-secreting activity of neutrophil-like differentiated HL-60 cells. It is filed as cell-based, human. The following applies: neutrophil-like differentiated HL-60 cells; for EC50: Table 1, read-out: EC50 (μM), β-hexosaminidase-secreting activity; for Activity (β-hexosaminidase-secreting activity class): lowest concentration class at which secretion was confirmed. The source says: (1) Culture of Cell and Differentiation Into Neutrophil-like Cell
In this time, the cells were subcultured at a cell density of 1.0×10^5 cells/ml to 1.5×10^6 cells/ml, the number of cells was counted using a microscope, and the state of the cells was also confirmed.
The HL-60 cells were differentiated into neutrophil-like cells by setting the cell density in the flask to about 1.0×10^6 cells/ml, adding dibutylyl-cAMP (db-cAMP) as a differentiation-inducing agent so as to have a final concentration of 500 μM, and incubating the cells in the presence of CO2 at 37° C. for 3 days.
(2) Stimulation of Cell and Measurement of β-Hexosaminidase-secreting Activity
The cells were collected by centrifuging the suspension of the differentiated HL-60 cells (1,000 rpm, 5 minutes, 4° C.). After that, the following operation was repeated three times to wash the cells: Hepes buffered Hank's solution (HBHS) containing ice-cooled 0.1% BSA (1.2 mM CaCl2.2H2O, 5.4 mM KCl, 0.44 mM KH2PO4, 0.49 mM MgCl2.6H2O, 0.41 mM MgSO4.7H2O, 136.9 mM NaCl, 0.34 mM Na2HPO4, 10 mM Hepes, 4.2 mM NaHCO3, 5.5 mM D-glucose, pH 7.4) was added to the cells; the mixture was suspended by inversion; and the mixture was centrifuged again (1,000 rpm, 5 minutes, 4° C.). Subsequently, HBHS was added so that the mixture has a cell density of 5.6×10^6 cells/ml and suspended. Then, DNase I and cytochalasin B were each added so as to have a final concentration of 5 μg/ml, and the cell suspension was dispensed in an amount of 90 μl (5×10^5 cells) on ice. […] After the cell stimulation for 10 minutes, 100 μl of an ice-cooled stop solution (25 mM Tris, 123 mM NaCl, 2.7 mM KCl, pH 7.4) were added, and immediately, the mixture was centrifuged (5,000 rpm, 1 minute, 4° C.). 200 μl of the obtained supernatant were transferred to a new tube.
The amount of β-hexosaminidase released in the supernatant of the reaction solution was measured by an enzyme reaction using p-nitrophenyl-N-acetyl-μ-D-glucosaminide as a substrate (Non-patent Document 12). That is, the supernatant of the reaction solution was dispensed in an amount of 90 μl to a 96-well plate. 60 μl of a substrate solution (10 mM p-nitrophenyl-N-acetyl-μ-D-glucosaminide, 40 mM citrate, 70 mM Na2HPO4, pH 4.5) were added to each well, followed by incubation at 37° C. for 1 hour. After the reaction, 100 μl of a stop solution (0.4 M glycine, pH 10.7) were added to each well and a color of the released p-nitrophenol was developed. The color development was measured with a plate reader at adsorption at 405 nm (reference: 492 nm). The all amount of β-hexosaminidase contained in the cells was quantified by treating the cells with Triton X-100 having a final concentration of 0.05%. In addition, the amount of β-hexosaminidase secreted by stimulation of 10 μM fMLP was also measured, and the ratio of the secretion amount by stimulation with each peptide to the above sectretion amount by stimulation with fMLP.

Where no end group is shown, it is not given here.

For 008 (MLGQSIRRFTTSVVR) [compound 008], the concentration giving a half-maximal response (EC50) was above 100 µM and the “Activity (β-hexosaminidase-secreting activity class)” value (“Activity” below) is listed as “▴ (a peptide in which the β-hexosaminidase-secreting activity was confirmed at a concentration of 100 μM or less)”.

For MFPLVKSALNRLQVRSIQQTMARQ [compound 015], the EC50 worked out at 0.38 µM and the “Activity” value is “⊚ (a peptide in which the β-hexosaminidase-secreting activity was confirmed at a concentration of 300 nM or less)”.

Regarding MLWNLLALHQIGQRTISTASHRH [compound 019], the concentration giving a half-maximal response (EC50) was 0.23 µM and the “Activity” value is “⊚ (a peptide in which the β-hexosaminidase-secreting activity was confirmed at a concentration of 300 nM or less)”.

010 (MLGQSIRRFTTSVVRR) [compound 010]: the EC50 is above 40 µM and the “Activity” value is given as “● (a peptide in which the β-hexosaminidase-secreting activity was confirmed at a concentration of 10 μM or less)”.

In the case of “MAAVVALSLRRRLPATTLGGACLQASRG [compound 026]”, the EC50 came out at 10 µM and the “Activity” value was “● (a peptide in which the β-hexosaminidase-secreting activity was confirmed at a concentration of 10 μM or less)”.

With “047 (MLSALARPVSAALRRSFSTSAQNN) [compound 047]”, the half-maximal effective concentration (EC50) is above 20 µM and the “Activity” value is given as “● (a peptide in which the β-hexosaminidase-secreting activity was confirmed at a concentration of 10 μM or less)”.

For the substance “006 (MGGLWRPGWRCVPFCGWRWI) [compound 006]”, the “Activity” value is given as “▴ x”.

Turning to “MALLTAAARLLGTKNASCLVLAARHAS [compound 050]”, the EC50 amounted to 7 µM and the “Activity” value is recorded as “● (a peptide in which the β-hexosaminidase-secreting activity was confirmed at a concentration of 10 μM or less)”.

With MALVHKLLRGTYFLRKFSKPTSAL [compound 025], the EC50 was 1.9 µM and the “Activity” value is given as “⊚ (a peptide in which the β-hexosaminidase-secreting activity was confirmed at a concentration of 300 nM or less)”.

MFPLARNALSSLKIQSILQSMARH [compound 048]: the concentration giving a half-maximal response (EC50) was found to be 0.1 µM and the “Activity” value is on record as “⊚ (a peptide in which the β-hexosaminidase-secreting activity was confirmed at a concentration of 300 nM or less)”.

Turning to “MAAAALGQIWARKLLSVPWLLCGPRRY [compound 022]”, the EC50 came to 0.8 µM and the “Activity” value was “⊚ (a peptide in which the β-hexosaminidase-secreting activity was confirmed at a concentration of 300 nM or less)”.

In the case of MFRRPVLQVLRQFVRH [compound 037], the EC50 turned out to be 0.11 µM and the “Activity” value is recorded as “⊚ (a peptide in which the β-hexosaminidase-secreting activity was confirmed at a concentration of 300 nM or less)”.

In the case of “MASRLLRGAGTLAAQALRARGPSGAAAMRSM [compound 001]”, the EC50 amounted to 23 µM and the “Activity” value is on record as “● (a peptide in which the β-hexosaminidase-secreting activity was confirmed at a concentration of 10 μM or less)”.

In the case of MLATRVFSLVGKRAISTSVCVR [compound 018], the EC50 came to 6.1 µM and the “Activity” value is reported as “∘ (a peptide in which the β-hexosaminidase-secreting activity was confirmed at a concentration of 1 μM or less)”.

For “016 (MPLLRGRCPARRHYRRLALLGLQPAPRFA) [compound 016]”, the 50% effective concentration (EC50) is above 20 µM and the “Activity” value is “● (a peptide in which the β-hexosaminidase-secreting activity was confirmed at a concentration of 10 μM or less)”.

With 013 (MALPLRPLTRGL) [compound 013], the EC50 is above 30 µM and the “Activity” value is recorded as “● (a peptide in which the β-hexosaminidase-secreting activity was confirmed at a concentration of 10 μM or less)”.

As for MAVVGVSSVSRLLGRSRPQLGRPM [compound 009], the 50% effective concentration (EC50) amounted to 5 µM and the “Activity” value was “∘ (a peptide in which the β-hexosaminidase-secreting activity was confirmed at a concentration of 1 μM or less)”.

What is called EC50 is the concentration that produces a half-maximal response.
